This is an account of results in patent US9079915B2, “Thienyl- and furanyl-isoquinolinones and methods for using them” (priority 2008, dated 2015).

The target of data set [1] is T1, hrPARP-1 (human recombinant, Trevigen) (Homo sapiens, UniProt P09874).
T1 construct: purchased Trevigen
The data set can be described thus: Functional assessment of human PARP-1 enzymatic activity. The class given is biochemical. Conditions: 1 U hrPARP-1, 15 μg/mL activated DNA, 5 μM NAD+, 20 min room temperature. As to the method: Functional Assessment of Human PARP-1 Enzymatic Activity
hrPARP-1 (human recombinant, Trevigen), Activated DNA (Sigma), 6(5H)-phenanthridinone (PND), (Sigma), NAD+ (Calbiochem), PARP-1 assay buffer (50 mM Tris, 2 mM MgCl2, pH 8.0), 20% acetophenone in EtOH, 2 M KOH
88% formic acid, 110° C. oven, Flexstation Plate Reader.
Compound plates were prepared by making a series of 1:3 dilutions for each tested compound, 10 steps of each at 20 μL in DMSO starting from a concentration of 5 mM. NAD^+ (39 μL of a 6.4 μM solution) were added to each well of a 96-well flat bottom fluorescent assay plate. Test compound (1 μL) was added to each well. To initiate the reaction, 10 μL of PARP (contains 5 U of PARP and 75 μg/mL activated DNA) was added with a final 1 U hrPARP-1, 15 μg/mL activated DNA and 5 μM of NAD^+. The highest concentration used for test compounds was 100 μM. The plates were incubated at room temperature on a shaker. After 20 min, 20 μL of 2 M KOH and 20 μL of 20% acetophenone were added. The plate was incubated 10 min. at 4° C., and 90 μL of 88% formic acid was added. After incubating in an 110° C. oven for 5 min, the plate was cooled to room temperature and read of a Flexstation Plate Reader (excitation at 360 nm, emission at 445 nm).
LSW data analysis software was used to generate PARP-1 IC50s.

Data set [2] can be described thus: MDCK permeability assay (efflux ratio). The conditions noted are these: dog, MDCK-MDR1, pH 7.4, MDR-MDCK cells, 37° C., Papp(B-A)/Papp(A-B). The class given is in vitro ADME, Canine. As to the method:
1. MDCK Permeability Assay
Multi Drug Resistance-Madin-Darby Canine Kidney (MDR-MDCK) cells were obtained from NIH (Bethesda, Md., USA). Cells were plated on Costar 3401 Transwell 12 well, 12 mm diameter, 0.4 um pore size plates (Costar, Mass., USA) and cultured for at least 6 days prior to the transport assay. The cells were carefully pre-washed with Hank's balanced salt solution containing 10 mM HEPES and 15 mM D-glucose at pH 7.4, which was also used as the assay buffer. The test compounds were dosed on the apical side (A-B) or the basolateral side (B-A) with 0.2 mM Lucifer Yellow (500 μL into apical side, 1500 μL into basolateral side). The test compounds in the apical or basolateral chambers were at an initial concentration of 10 μM. The plates were incubated at 37° C. with 5% CO2 and 90% relative humidity for 2 hours. One hundred microliters of receiver solution (basolateral side for A-B transport experiment, apical side for B-A transport experiment) was transferred to a 96 well plate for LC-MS-MS quantization of the test compound concentration and fluorometer quantization of Lucifer Yellow.
Quality control compounds and TEER measurements were run to assure proper operation of the assay (see Table 2). The TEER values of each well use for the assay should be ≧1400 ohm·cm^2.

Data set [3] can be described thus: Microsomal stability, rat liver microsomes. The class given is in vitro ADME. Conditions: 0.5 mg/mL protein. How it is done: (§1) The assay protocol was described in Summerfield S G, Read K, Begley D J, Obradovic T, Hidalgo I J, Coggon S, Lewis A V, Porter R A, Jeffrey P 2007. Central Nervous System Drug Disposition: The Relationship between in Situ Brain Permeability and Brain Free Fraction. J Pharmacol Exp Ther, 322(1):205-213; and Li Di, E. Kerns, S. Li, S. Petusky, “High Throughput Metabolic Stability Assay for Insoluble Compounds”, Int. J. Pharm., 317, 54-60, 2006.
(§2) The samples were incubated with liver microsomes from rat, mouse, and human at 1 μM at microsomal protein concentration of 0.5 mg/mL at 37° C. in the presence of NADPH cofactor. At both time 0 and 15 minutes incubation, cold acetonitrile was added to the wells to stop the reaction. The solution was centrifuged and the supernatants were analyzed using LC-MS-MS. “Phase I” represents Phase I metabolism-oxidative metabolism by microsomes and “Phase II” represents Phase I oxidative metabolism (stated above) plus cofactors added that allow for Phase II (non-oxidative, conjugative) metabolism to take place.

Data set [4] in a line: Microsomal stability, C57 mouse liver microsomes. The class given is in vitro ADME. Conditions: 0.5 mg/mL protein. How it is done:
as §1, §2

Data set [5] is described as follows: Microsomal stability, human liver microsomes. The conditions noted are these: 0.5 mg/mL protein. It is filed as in vitro ADME. How it is done:
as §1, §2

Data set [6] in a line: Brain (B)-Plasma (P) dialysis. The class given is in vitro ADME. Conditions: for Kp at 5 h, 10 μM: diluted plasma or brain homogenate vs PBS, 37° C., read-out: Brain-Plasma Dialysis B/P Ratio; for B/P ratio divided by MDCK efflux ratio at 10 μM: read-out: Brain-Plasma Dialysis B/P/efflux ratio (ER). As to the method: 2. Brain (B)-Plasma (P) Dialysis
DMSO stock solution of 1 mM was prepared and 10 μL was added to 990 uL plasma (1 plasma:3 PBS) or brain homogeneous (1 brain:12 PBS). The final concentration was 10 μM test compound with 1% DMSO. The dialysis was setup with 200 uL PBS vs. 200 uL diluted plasma or diluted brain homogenates with test compounds. The dialysis plate was incubated at 37° C., 70 RPM for 5 hours. At the end of the incubation, 150 μL PBS, 50 uL plasma and 50 uL of brain homogenates were sampled from the dialysis device. Each of the samples was matched with PBS, plasma and brain homogenates to give consistent matrix material. Cold acetonitrile of 300 μL was added to the sample to precipitate the proteins and tissues. The solutions were centrifuged and the supernatants were transferred for LC-MS-MS analysis. Four replicates were preformed for each test compound. Data was calculated according to Summerfield S G, Read K, Begley D J, Obradovic T, Hidalgo I J, Coggon S, Lewis A V, Porter R A, Jeffrey P 2007. Central Nervous System Drug Disposition: The Relationship between in Situ Brain Permeability and Brain Free Fraction.

Where [7] appears, read: NADPH, Phase I, read-out: Microsomal Stability Rat Phase I t1/2.
Setting [8] is: Phase I plus Phase II cofactors, read-out: Microsomal Stability Rat Phase I & II t1/2.
The mark [9] stands for this setting: NADPH, Phase I, read-out: Microsomal Stability C57 Mouse Phase I t1/2.
Where [10] appears, read: Phase I plus Phase II cofactors, read-out: Microsomal Stability C57 Mouse Phase I & II t1/2.
The mark [11] stands for this setting: NADPH, Phase I, read-out: Microsomal Stability Human Phase I t1/2.
Setting [12] is: Phase I plus Phase II cofactors, read-out: Microsomal Stability Human Phase I & II t1/2.

Where a name gives a salt, the structure may show the parent alone.

T1 sequence (P09874 whole entry): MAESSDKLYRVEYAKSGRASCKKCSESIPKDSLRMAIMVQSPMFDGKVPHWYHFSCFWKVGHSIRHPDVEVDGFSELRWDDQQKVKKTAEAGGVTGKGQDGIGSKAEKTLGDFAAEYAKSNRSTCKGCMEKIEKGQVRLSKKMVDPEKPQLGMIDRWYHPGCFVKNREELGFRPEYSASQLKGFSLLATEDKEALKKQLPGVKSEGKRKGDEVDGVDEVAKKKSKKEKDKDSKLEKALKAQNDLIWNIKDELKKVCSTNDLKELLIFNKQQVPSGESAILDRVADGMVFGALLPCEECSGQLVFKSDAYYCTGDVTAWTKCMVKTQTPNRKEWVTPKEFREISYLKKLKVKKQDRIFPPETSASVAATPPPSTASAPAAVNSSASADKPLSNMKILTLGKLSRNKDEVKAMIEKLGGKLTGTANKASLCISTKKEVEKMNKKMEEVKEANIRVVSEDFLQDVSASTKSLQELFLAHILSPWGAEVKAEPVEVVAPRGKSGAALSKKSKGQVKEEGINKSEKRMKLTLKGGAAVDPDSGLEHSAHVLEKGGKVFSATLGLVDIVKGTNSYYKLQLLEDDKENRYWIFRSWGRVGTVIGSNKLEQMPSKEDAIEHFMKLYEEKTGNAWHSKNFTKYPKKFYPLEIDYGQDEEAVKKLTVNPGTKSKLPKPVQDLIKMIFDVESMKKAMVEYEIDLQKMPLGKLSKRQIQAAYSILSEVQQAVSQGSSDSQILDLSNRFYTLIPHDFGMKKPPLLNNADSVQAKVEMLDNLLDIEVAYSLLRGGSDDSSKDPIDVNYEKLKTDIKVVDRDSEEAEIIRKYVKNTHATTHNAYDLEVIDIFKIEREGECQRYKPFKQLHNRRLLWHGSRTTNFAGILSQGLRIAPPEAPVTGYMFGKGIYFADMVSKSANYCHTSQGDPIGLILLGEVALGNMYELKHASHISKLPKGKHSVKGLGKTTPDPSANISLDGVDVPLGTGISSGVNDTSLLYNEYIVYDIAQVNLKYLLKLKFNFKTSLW

In the case of `O=c1[nH]c2sc(CN3CCCC3)cc2c2c(O)cccc12` [Example 14, 9-Hydroxy-2-(pyrrolidin-1-ylmethyl)thieno[2,3-c]isoquinolin-5(4H)-one], the IC50 in data set [1] came to 81 nM. The efflux ratio at 2 h, 10 μM in data set [2] is more than 20. Besides, the half-life at 1 μM in data set [3] (setting [7]), in data set [3] (setting [8]), in data set [4] (setting [9]), in data set [4] (setting [10]), in data set [5] (setting [11]) and in data set [5] (setting [12]) was more than 30 min each time. For the same molecule, in data set [6], the Kp at 5 h, 10 μM was determined as 1.03. Besides, the B/P ratio divided by MDCK efflux ratio at 10 μM in data set [6] was less than 0.05.
As to `Br.CN(C)Cc1cc2c([nH]c(=O)c3cccc(O)c32)s1` [Example 2, 2-Dimethylaminomethyl-9-hydroxythieno[2,3-c]isoquinolin-5(4H)-one hydrobromide], in data set [1], the IC50 worked out at 28 nM. Further, the efflux ratio at 2 h, 10 μM in data set [2] stood at 1.7. Besides, the half-life at 1 μM in data set [3] (setting [7]) was 6 min; in data set [3] (setting [8]), less than 1 min; in data set [4] (setting [9]), 15 min; in data set [4] (setting [10]), 19 min; in data set [5] (setting [11]), more than 30 min; in data set [5] (setting [12]) it was 17 min. In addition, in data set [6], the Kp at 5 h, 10 μM is 0.05. Moreover, the B/P ratio divided by MDCK efflux ratio at 10 μM in data set [6] is 0.03.
On to `O=c1[nH]c2sc(CN3CCCCC3)cc2c2c(O)cccc12` [Example 11, 9-Hydroxy-2-(piperidin-1-ylmethyl)thieno[2,3-c]isoquinolin-5(4H)-one], for which the IC50 in data set [1] was found to be 4.7 nM. Moreover, the efflux ratio at 2 h, 10 μM in data set [2] turned out to be 10.4. For the same molecule, the half-life at 1 μM is 10 min in data set [3] (setting [7]); 18 min in data set [3] (setting [8]); 27 min in data set [4] (setting [9]); more than 30 min in data set [4] (setting [10]); 19 min in data set [5] (setting [11]); 17 min in data set [5] (setting [12]). Besides, the Kp at 5 h, 10 μM in data set [6] stood at 1.25. Besides, the B/P ratio divided by MDCK efflux ratio at 10 μM in data set [6] was 0.12.
For `CN(C)Cc1cc2c([nH]c(=O)c3ccccc32)s1` [Example 3, 2-[(Dimethylamino)methyl]thieno[2,3-c]isoquinolin-5(4H)-one hydrochloride], the IC50 in data set [1] stood at 260 nM.
Still for that read-out and setting: as for `CN(Cc1ccccc1)Cc1cc2c([nH]c(=O)c3cccc(O)c32)s1` [Example 17, 2-{[Benzyl(methyl)amino]methyl}-9-hydroxythieno[2,3-c]isoquinolin-5(4H)-one], the figure is 373 nM.
Turning to `CC(C)NCc1cc2c([nH]c(=O)c3cccc(O)c32)s1` [Example 13, 9-Hydroxy-2-{[(1-methylethyl)amino]methyl}thieno[2,3-c]isoquinolin-5(4H)-one], the concentration for half-maximal inhibition (IC50) in data set [1] is 86 nM. The half-life at 1 μM in data set [3] (setting [7]) was less than 1 min; in data set [3] (setting [8]) it was less than 1 min; in data set [4] (setting [9]), 28 min; in data set [4] (setting [10]), 24 min; in data set [5] (setting [11]) it was more than 30 min; in data set [5] (setting [12]), more than 30 min. In addition, the Kp at 5 h, 10 μM in data set [6] worked out at 1.53.
`CN(C)Cc1cc2c([nH]c(=O)c3cc(F)cc(O)c32)s1` [Example 7, 2-[(Dimethylamino)methyl]-7-fluoro-9-hydroxythieno[2,3-c]isoquinolin-5(4H)-one hydrochloride]: the IC50 in data set [1] is 38 nM.
Still for that read-out and setting: as for `O=c1[nH]c2sc(CN(Cc3ccccc3)Cc3ccccc3)cc2c2c(O)cccc12` [Example 16, 2-[(Dibenzylamino)methyl]-9-hydroxythieno[2,3-c]isoquinolin-5(4H)-one], the figure is 1060 nM; as for `CN(C)Cc1cc2c([nH]c(=O)c3cccc(F)c32)s1` [Example 5, 2-[(Dimethylamino)methyl]-9-fluorothieno[2,3-c]isoquinolin-5(4H)-one hydrochloride], 200 nM.
The same measure, in the same setting: as for `CN(C)Cc1cc2c([nH]c(=O)c3ccc(Cl)cc32)s1` [Example 6, 8-Chloro-2-[(dimethylamino)methyl]thieno[2,3-c]isoquinolin-5(4H)-one hydrochloride], the figure is 2250 nM; as for `CN(C)Cc1cc2c([nH]c(=O)c3cc(F)ccc32)s1` [Example 4, 2-[(Dimethylamino)methyl]-7-fluorothieno-[2,3-c]isoquinolin-5(4H)-one hydrochloride], 100 nM.
The same measure, in the same setting: as for `COc1ccc2c(=O)[nH]c3sc(CN(C)C)cc3c2c1` [Example 8, 2-[(Dimethylamino)methyl]-8-methoxythieno[2,3-c]isoquinolin-5(4H)-one hydrochloride], the figure is 2190 nM.
Consider `O=c1[nH]c2sc(CN3CCSC3)cc2c2c(O)cccc12` [Example 12, 9-Hydroxy-2-(1,3-thiazolidin-3-ylmethyl)thieno[2,3-c]isoquinolin-5(4H)-one], for which the IC50 in data set [1] came out at 3.3 nM. In addition, in data set [2], the efflux ratio at 2 h, 10 μM was 0.8. In addition, the half-life at 1 μM turned out to be 5 min in data set [3] (setting [7]); 5 min in data set [3] (setting [8]); 4 min in data set [4] (setting [9]); 5 min in data set [4] (setting [10]); 6 min in data set [5] (setting [11]); 4 min in data set [5] (setting [12]). Further, in data set [6], the Kp at 5 h, 10 μM amounted to 0.79. Moreover, the B/P ratio divided by MDCK efflux ratio at 10 μM in data set [6] was found to be 0.79.
For the molecule `CN(C)Cc1cc2c([nH]c(=O)c3ccccc32)o1` [Example 9, 2-[(Dimethylamino)methyl]furo[2,3-c]isoquinolin-5(4H)-one hydrochloride], in data set [1], the IC50 came out at 161 nM.
